According to patent publication US5571804A, “Cephalosporin antibiotics” (priority 1993, dated 1996):

Key:
[1] = test system: Enterobacter cloacae P99; experiment: MIC, two-fold agar dilution; type: cell-based; conditions: Muller-Hinton agar, 37° C., 20 hours
[2] = test system: Staphylococcus aureus 241; experiment: MIC, two-fold agar dilution; type: cell-based; conditions: Muller-Hinton agar, 37° C., 20 hours
[3] = test system: Staphylococcus aureus giorgio; experiment: MIC, two-fold agar dilution; type: cell-based; conditions: Muller-Hinton agar, 37° C., 20 hours
[4] = test system: Pseudomonas aeruginosa 1912E; experiment: MIC, two-fold agar dilution; type: cell-based; conditions: Muller-Hinton agar, 37° C., 20 hours
[5] = test system: Klebsiella aerogenes K1 + 1082E; experiment: MIC, two-fold agar dilution; type: cell-based; conditions: Muller-Hinton agar, 37° C., 20 hours
[6] = pharmakinetic variables in SD rats; conditions: rat, in vivo, iv, 20 mg/kg
Experimental: The pharmakinetic variables were determined using SD rats (.male.) of a body weight of 230±10g as follows. The "S" compound of each of the Examples was injected to femoral vein of 4-5 rats by 20mg/Kg and then blood was collected from femoral artery in 1, 2.5, 5, 10, 20, 40, 60 and 120 min.

[7] = test system: Salmonella typhimurium 14028A; experiment: MIC, two-fold agar dilution; type: cell-based; conditions: Muller-Hinton agar, 37° C., 20 hours
[8] = test system: Staphylococcus epidermidis 887E; experiment: MIC, two-fold agar dilution; type: cell-based; conditions: Muller-Hinton agar, 37° C., 20 hours
[9] = test system: E. coli TEM3 3455E; experiment: MIC, two-fold agar dilution; type: cell-based; conditions: Muller-Hinton agar, 37° C., 20 hours
[10] = test system: Pseudomonas aeruginosa 6065; experiment: MIC, two-fold agar dilution; type: cell-based; conditions: Muller-Hinton agar, 37° C., 20 hours
[11] = test system: Pseudomonas aeruginosa 10145; experiment: MIC, two-fold agar dilution; type: cell-based; conditions: Muller-Hinton agar, 37° C., 20 hours
[12] = test system: E. coli TEM9 2639E; experiment: MIC, two-fold agar dilution; type: cell-based; conditions: Muller-Hinton agar, 37° C., 20 hours
[13] = test system: Streptococcus laecalis 29212A; experiment: MIC, two-fold agar dilution; type: cell-based; conditions: Muller-Hinton agar, 37° C., 20 hours
[14] = test system: Acinetobacter calcoaceticus 15473A; experiment: MIC, two-fold agar dilution; type: cell-based; conditions: Muller-Hinton agar, 37° C., 20 hours
[15] = test system: E. coli TEM1 1193E; experiment: MIC, two-fold agar dilution; type: cell-based; conditions: Muller-Hinton agar, 37° C., 20 hours
[16] = test system: Serratia marcescens 1826E; experiment: MIC, two-fold agar dilution; type: cell-based; conditions: Muller-Hinton agar, 37° C., 20 hours
[17] = test system: E. coli 3190Y; experiment: MIC, two-fold agar dilution; type: cell-based; conditions: Muller-Hinton agar, 37° C., 20 hours
[18] = test system: E. coli TEM5 3739E; experiment: MIC, two-fold agar dilution; type: cell-based; conditions: Muller-Hinton agar, 37° C., 20 hours
[19] = test system: Klebsiella aerogenes SHV-1 1976E; experiment: MIC, two-fold agar dilution; type: cell-based; conditions: Muller-Hinton agar, 37° C., 20 hours
[20] = test system: Citrobacter diversus 2046E; experiment: MIC, two-fold agar dilution; type: cell-based; conditions: Muller-Hinton agar, 37° C., 20 hours
[21] = test system: Staphylococcus aureus 77; experiment: MIC, two-fold agar dilution; type: cell-based; conditions: Muller-Hinton agar, 37° C., 20 hours
[22] = test system: Enterobacter cloacae IND + VE 1194E; experiment: MIC, two-fold agar dilution; type: cell-based; conditions: Muller-Hinton agar, 37° C., 20 hours
[23] = test system: E. coli 10536; experiment: MIC, two-fold agar dilution; type: cell-based; conditions: Muller-Hinton agar, 37° C., 20 hours
[24] = test system: E. coli TEM7 3457E; experiment: MIC, two-fold agar dilution; type: cell-based; conditions: Muller-Hinton agar, 37° C., 20 hours
[25] = test system: Proteus vularis 6059A; experiment: MIC, two-fold agar dilution; type: cell-based; conditions: Muller-Hinton agar, 37° C., 20 hours
[26] = test system: Staphylococcus aureus 6538P; experiment: MIC, two-fold agar dilution; type: cell-based; conditions: Muller-Hinton agar, 37° C., 20 hours
[27] = test system: E. coli 851E; experiment: MIC, two-fold agar dilution; type: cell-based; conditions: Muller-Hinton agar, 37° C., 20 hours

Row | Compound | minimal inhibitory concentration (MIC) [1] | minimal inhibitory concentration (MIC) [2] | minimal inhibitory concentration (MIC) [3] | minimal inhibitory concentration (MIC) [4] | minimal inhibitory concentration (MIC) [5] | AUC at 2 h [6] [ng·h/mL] | half-life [6] [min] | minimal inhibitory concentration (MIC) [7] | minimal inhibitory concentration (MIC) [8] | minimal inhibitory concentration (MIC) [9] | minimal inhibitory concentration (MIC) [10] | minimal inhibitory concentration (MIC) [11] | minimal inhibitory concentration (MIC) [12] | minimal inhibitory concentration (MIC) [13] | minimal inhibitory concentration (MIC) [14] | minimal inhibitory concentration (MIC) [15] | minimal inhibitory concentration (MIC) [16] | minimal inhibitory concentration (MIC) [17] | minimal inhibitory concentration (MIC) [18] | minimal inhibitory concentration (MIC) [19] | other results
1 | Nc1nc(/C(=N/O[C@H](C(=O)O)c2ccc(O)c(O)c2)C(=O)N[C@@H]2C(=O)N3C(C(=O)O)=C(CSc4nc(N)c5c(n4)CCC5)CS[C@H]23)cs1 [Compound I-4S, 7-[(Z)-2-(aminothiazol-4-yl)-2-(α-carboxyl-3,4-dihydroxybenzyioxyimino)acetamido]-3-(4-amino-5,6-cyclopentapyrimidine-2-yl)thiomethyl-3-cephem-4-carboxylate] | 8 | 64 | 1 | 0.25 | 0.031 | 55500 | 57 | 0.016 | 32 | 0.016 | 0.13 | 0.13 | 0.25 | 4 | 0.13 | 0.063 | 0.25 | 0.031 | 0.063 | 0.13 | minimal inhibitory concentration (MIC) [20]: 0.063; minimal inhibitory concentration (MIC) [21]: 8; minimal inhibitory concentration (MIC) [22]: 2; minimal inhibitory concentration (MIC) [23]: ≤ 0.008; minimal inhibitory concentration (MIC) [24]: ≤ 0.008; minimal inhibitory concentration (MIC) [25]: 0.13; minimal inhibitory concentration (MIC) [26]: 1; minimal inhibitory concentration (MIC) [27]: 0.031
2 | Nc1nc(/C(=N/O[C@H](C(=O)O)c2ccc(O)c(O)c2)C(=O)N[C@@H]2C(=O)N3C(C(=O)O)=C(CSc4nc(N)c(N)c(N)n4)CS[C@H]23)cs1 [Compound I-5S, 7-[(Z)-2-(aminothiazol-4-yl)-2-(α-carboxy-3,4-dihydroxybenzyloxyimino)acetamido]-3-(4,5,6-triaminopyrimidine-2-yl)thiomethyl-3-cephem-4-carboxylate] | 8 | 64 | 1 | 0.25 | 0.031 | 59500 | 59 | 0.016 | 32 | 0.016 | 0.25 | 0.13 | 0.25 | 4 | 0.13 | 0.031 | 0.25 | 0.031 | 0.063 | 0.13 | minimal inhibitory concentration (MIC) [20]: 0.063; minimal inhibitory concentration (MIC) [21]: 8; minimal inhibitory concentration (MIC) [22]: 2; minimal inhibitory concentration (MIC) [23]: ≤ 0.008; minimal inhibitory concentration (MIC) [24]: ≤ 0.008; minimal inhibitory concentration (MIC) [25]: 0.13; minimal inhibitory concentration (MIC) [26]: 2; minimal inhibitory concentration (MIC) [27]: 0.031
3 | Nc1cc(SCC2=C(C(=O)O)N3C(=O)[C@@H](NC(=O)/C(=N\O[C@H](C(=O)O)c4ccc(O)c(O)c4)c4csc(N)n4)[C@H]3SC2)ncn1 [Compound I-7S, 7[-(Z)-2-(aminothiazol-4-yl)-2-(α-carboxy-3,4-dihydroxybenzyloxyimino)acetamido]-3-(6-amino-pyrimidine-4-yl)thiomethyl-3cephem-4-carboxylate] | 8 | 64 | 1 | 0.25 | 0.063 | 60000 | 59 | 0.016 | 32 | 0.016 | 0.5 | 0.25 | 0.13 | 2 | 0.13 | 0.063 | 0.25 | 0.031 | 0.063 | 0.25 | minimal inhibitory concentration (MIC) [20]: 0.063; minimal inhibitory concentration (MIC) [21]: 4; minimal inhibitory concentration (MIC) [22]: 2; minimal inhibitory concentration (MIC) [23]: ≤ 0.008; minimal inhibitory concentration (MIC) [24]: 0.016; minimal inhibitory concentration (MIC) [25]: 0.25; minimal inhibitory concentration (MIC) [26]: 2; minimal inhibitory concentration (MIC) [27]: 0.063
